Literature values, collected in patent publication US12060328B2, “Co-crystals or salts of psilocybin and methods of treatment therewith” (RESET PHARMACEUTICALS, INC., priority 2022, dated 2024).

Settings: cited from earlier work; for pKa (acidic) / pKa (basic): co-former property, Table 1

SMILES | pKa (acidic) | pKa (basic) | further results
OC[C@@H](O)[C@@H](O)[C@H](O)[C@H](O)CO [D-mannitol] | 13.50 | – | –
NC(CO)(CO)CO [tromethamine] | – | 8.95 | –
NC(=O)c1ccncc1 [isonicotinamide] | – | 3.61 | –
NC(CS)C(=O)O (racemic) [DL-cysteine] | 1.71 | 8.33 | –
NC(N)=O [urea] | – | 0.10 | –
OC[C@@H](O)[C@@H](O)CO [meso-erythritol] | 13.90 | – | –
CN(C)CCc1c[nH]c2cccc(OP(=O)(O)O)c12 [psilocybin, [3-(2-dimethylaminoethyl)-1H-indol-4-yl]dihydrogen phosphate] | – | – | pKa3 (tertiary amine) (estimated) (reported value, estimated): 10.4; pKa1 (1st phosphate oxygen) (reported value): 1.3; pKa2 (2nd phosphate oxygen) (reported value): 6.5
O=C(O)[C@H](O)[C@@H](O)[C@H](O)[C@H](O)CO [gluconic acid] | 3.6 | – | –
Cn1c(=O)c2[nH]cnc2n(C)c1=O [theophylline] | 8.81 | – | –
O=C1CC[C@@H](C(=O)O)N1 [L-pyroglutamic acid] | 3.48 | – | –
CCCOC(=O)c1cc(O)c(O)c(O)c1 [propyl 3,4,5-trihydroxybenzoate] | 7.94 | – | –
